Data taken from patent US8183285B2, “Therapeutic agent for irritable bowel syndrome and methods thereof” (Takeda Pharmaceutical Company Limited, priority 2006, dated 2012).

Assays:
normal defecation = assay: Normal defecation test; format: in vivo; conditions: male Wistar rats, oral 30 mg/kg; FIG. 3
Description: Further, a study on normal defecation was also conducted. Until the day before the experiment, two rats were kept in a cage and accustomed to the measuring condition. On the day of experiment, compound A or vehicle (control group, 0.5% methylcellulose) was administered orally with a dose of 4 ml/kg, and after 15 minutes, the measurement of defecation was commenced. The number of feces was counted two hours after the initiation of measurement, and the result was expressed by the number of feces per two rats.

[1] = tested on: restraint stress-induced defecation; assay: Restraint stress-induced defecation test; format: in vivo; conditions: male Wistar rats
Description: For the experiment, 10 week-old male Wistar rats (SLC) were used. Compound A (0.3, 3, 10 and 30 mg/kg) or a vehicle (control group, 0.5% methylcellulose) was administered orally with a dose of 4 ml/kg, and after 15 minutes, a restraint stress was loaded. Fecal pellets were retrieved 2 hours after the beginning of the restraint stress loading, and the number of feces was counted. In addition, as for normal group, rats were left in their individual cages without any after administration of vehicle, and the number of feces for 2 hours was counted. Experiment was carried out according to Test Example 2, wherein melatonin (10 and 30 mg/kg) instead of compound A was administered orally.

viscerosensory response = assay: Viscerosensory response test: abdominal oblique muscle contractions under colonic distension stimulus after 1% acetic acid instillation; format: in vivo; conditions: male SD rats, oral 0.3, 3 and 30 mg/kg, 30 minutes before second colonic distension stimulus; FIG. 1
Description: For the experiment, 7 to 8 week-old male SD rats (CREA Japan, Inc.) were used. Under ether anesthesia, the rats were sutured with a force transducer (F12-IS-SL, Star Medical Inc.) on the abdominal oblique muscle, and used for the experiment after waiting at least one day or more postoperatively for recovery of the animals. After fasting for 18 hours, 1% acetic acid was instilled into the colon to produce a hypersensitive condition. One hour after the instillation of acetic acid, a balloon was inserted into the colon, fixed, and colonic distension stimulus was loaded for 10 minutes by inflating the balloon. The colonic distension stimulus was loaded two times before and after administration of compound A, and the observed contraction number of the abdominal oblique muscle was counted. The result was expressed as inhibition percent. Determination of the abdominal muscle contraction was conducted with the naked eye and waveform of force transducer. Compound A was suspended in a 0.5% methylcellulose, and administered orally with a volume of 4 mL/kg 30 minutes before the second colonic distension stimulus (0.3, 3 and 30 mg/kg).

[2] = tested on: melatonin receptor MT1/MT2; conditions: disclosed in U.S. Pat. No. 6,034,239; cited from earlier work
[3] = tested on: abdominal symptoms of irritable bowel syndrome; conditions: female patients suffering from irritable bowel syndrome; cited from earlier work
[4] = tested on: partial restraint stress-induced defecation; conditions: experimental model for irritable bowel syndrome; cited from earlier work

| SMILES | inhibition of normal defecation (number of feces per two rats, 2 hours) (normal defecation) | inhibition of restraint stress-induced defecation (number of feces for 2 hours) ([1]; oral 30 mg/kg, 15 minutes before restraint stress, FIG. 2) | inhibition of viscerosensory response (contraction number of abdominal oblique muscle, inhibition percent) (viscerosensory response) | melatonin receptor MT1/MT2 agonistic action [2] | improvement of abdominal symptoms (abdominal pain, abdominal bloating, sense of urgency for defecation) [3] | inhibition of restraint stress-induced defecation (number of feces for 2 hours) ([1]; oral 10 and 30 mg/kg, FIG. 4) | inhibitory action on partial restraint stress-induced defecation [4] |
| --- | --- | --- | --- | --- | --- | --- | --- |
| CCC(=O)NCC[C@@H]1CCc2ccc3c(c21)CCO3 [compound A, (S)—N-[2-(1,6,7,8-tetrahydro-2H-indeno[5,4-b]furan-8-yl)ethyl]propionamide] | not inhibited | inhibited significantly | dose-dependent significant inhibition action | has a melatonin receptor MT1/MT2 agonistic action | – | – | – |
| COc1ccc2[nH]cc(CCNC(C)=O)c2c1 [melatonin] | – | – | – | – | improves significantly | did not inhibit | shows an inhibitory action |
